Experiments:
[1] = target: NMDA receptors; assay: [3H]CGP-39653 saturation binding, spinal cord membranes; details: normal rat whole spinal cord; one-site binding
Description: (§1) Changes in NMDA receptor levels were determined at three weeks following nerve injury (one week following transplantation), as a marked distinction in responses to sensory stimuli between adrenal medullary and control transplanted animals can be made at this time point. […] [^3 H]CGP-39653 (D,L-(E)-2-amino-4-propyl-5-phosphono-3-pentenoate), a selective high-affinity competitive antagonist at NMDA receptors, was used to label the binding sites. In preliminary experiments, binding characteristics of this ligand were determined in the rat spinal cord. Saturation assays were performed on whole spinal cord tissue, and the results compared to those obtained in cortical membranes. NMDA binding sites were analyzed using previously described procedures with slight modification [M. A. Sills et al., Eur. J. Pharmacol., 192:19-24 (1991)]. Animals were decapitated and the spinal cords were rapidly extruded with saline pressure. […] This volume of tissue corresponded to approximately 110 μg of protein as determined using the Bradford method (BioRad, Richmond, Calif.). […] Nonspecific binding was determined in parallel tubes containing 100 mM L-glutamiate. […] Radioactivity was counted with a Beckman 3270 scintillation counter at 48-52% efficiency. Estimates of binding parameters were determined using the program LIGAND [P. J. Munson and D. Rodbard, Anal. Biochem., 197:220-239 (1980)].

[2] = target: NMDA receptors; assay: [3H]CGP-39653 saturation binding, cortical membranes; details: normal rat cortex; one-site binding
Description: as §1

[3] = test system: NMDA receptor; assay: NMDA-induced mechanical hyperalgesia (Randall-Selitto test) in rats with spinal subarachnoid transplants; type: in vivo, rat; details: for effect of antagonist pretreatment on NMDA dose-response curve, noxious mechanical stimuli, compared to saline pretreatment: adrenal medullary transplanted animals, s.c. 20 min prior to NMDA (2.5, 5.0, 10.0 nmol), naloxone 2.0 mg/kg, phentolamine 10.0 mg/kg
Description: Experimental procedures were approved and carried out in accordance the Guidelines of the Animal Care Committee, University of Illinois at Chicago. Male Sprague-Dawley rats weighing 325-375 g (Sasco, Madison, Wis.) at the beginning of the study were used as both graft donors and recipients. Graft recipients were anesthetized (Nembutal, 40 mg/kg, i.p., supplemented as necessary) and implanted with intrathecal catheters according to methods described by Yaksh and Rudy [T. L. Yaksh and T. A. Rudy, Physiol. Behav., 17:1031-1036 (1976)]. Catheters were made of PE10 tubing with a knot sealed with dental acrylic at 7.5 cm. The catheters were threaded through a slit in the atlanto-occipital membrane to the lumbar spinal subarachnoid space, and the free ends were anchored to the skull using cyanoacrylate. Donor adrenal medullary tissue was dissected from cortical tissue and cut into small pieces (<0.5 cm^3). Adrenal medullary tissue from two adrenal glands was used as this amount was shown in previous studies to produce significant antinociception using several behavioral tests [A. T. Hama and J. Sagen, Pain, 52:223-231 (1993); J. Sagen et al., Pain, 42:69-79 (1990); H. Wang and J. Sagen, J. Neural Transplant. Plastic., 5:49-64 (1994)]. Control animals received equal volumes of striated muscle tissue from donors. […]
(§2) Animals were allowed to recover from surgical procedures for two weeks prior to commencement of behavioral testing. Responses to noxious and innocuous stimuli were determined using three tests sequentially: the Hargreaves model for thermal hyperalgesia [K. M. Hargreaves et al., Pain, 32:223-231 (1988)], the Randall-Selitto test for mechanical hyperalgesia, and von Frey thresholds for tactile allodynia. […] The apparatus automatically terminates at a scale reading of 25 (=1000 g). […]
(§3) The first group of animals was used in order to determine the time course and dose-responsiveness to intrathecally injected NMDA. […] Baseline responses to all three tests were assessed at the beginning of each test day prior to drug injection. […]

[4] = test system: NMDA receptor; assay: NMDA-induced tactile allodynia (von Frey thresholds) in rats with spinal subarachnoid transplants; type: in vivo, rat; details: adrenal medullary transplanted animals; s.c. 20 min prior to NMDA (2.5, 5.0, 10.0 nmol); naloxone 2.0 mg/kg, phentolamine 10.0 mg/kg
Description: Experimental procedures were approved and carried out in accordance the Guidelines of the Animal Care Committee, University of Illinois at Chicago. Male Sprague-Dawley rats weighing 325-375 g (Sasco, Madison, Wis.) at the beginning of the study were used as both graft donors and recipients. Graft recipients were anesthetized (Nembutal, 40 mg/kg, i.p., supplemented as necessary) and implanted with intrathecal catheters according to methods described by Yaksh and Rudy [T. L. Yaksh and T. A. Rudy, Physiol. Behav., 17:1031-1036 (1976)]. Catheters were made of PE10 tubing with a knot sealed with dental acrylic at 7.5 cm. […]
as §2, §3

[5] = test system: NMDA receptor; assay: NMDA-induced thermal hyperalgesia (Hargreaves paw withdrawal latency) in rats with spinal subarachnoid transplants; type: in vivo, rat; details: for effect of antagonist pretreatment on NMDA dose-response curve, noxious thermal stimuli, compared to saline pretreatment: adrenal medullary transplanted animals, s.c. 20 min prior to NMDA (2.5, 5.0, 10.0 nmol), naloxone 2.0 mg/kg, phentolamine 10.0 mg/kg
Description: Experimental procedures were approved and carried out in accordance the Guidelines of the Animal Care Committee, University of Illinois at Chicago. Male Sprague-Dawley rats weighing 325-375 g (Sasco, Madison, Wis.) at the beginning of the study were used as both graft donors and recipients. Graft recipients were anesthetized (Nembutal, 40 mg/kg, i.p., supplemented as necessary) and implanted with intrathecal catheters according to methods described by Yaksh and Rudy [T. L. Yaksh and T. A. Rudy, Physiol. Behav., 17:1031-1036 (1976)]. Catheters were made of PE10 tubing with a knot sealed with dental acrylic at 7.5 cm. The catheters were threaded through a slit in the atlanto-occipital membrane to the lumbar spinal subarachnoid space, and the free ends were anchored to the skull using cyanoacrylate. Donor adrenal medullary tissue was dissected from cortical tissue and cut into small pieces (<0.5 cm^3). Adrenal medullary tissue from two adrenal glands was used as this amount was shown in previous studies to produce significant antinociception using several behavioral tests [A. T. Hama and J. Sagen, Pain, 52:223-231 (1993); J. Sagen et al., Pain, 42:69-79 (1990); H. Wang and J. Sagen, J. Neural Transplant. Plastic., 5:49-64 (1994)]. Control animals received equal volumes of striated muscle tissue from donors. Graft tissue was implanted in the spinal subarachnoid space via laminectomy at the level of the lumbar enlargement as described previously [J. Sagen et al., Brain Res., 384:189-194 (1986); J. Sagen et al., Pain, 42:69-79 (1990)]. Following surgical procedures, musculature was sutured (4-0 silk), and the skin closed with wound clips. Animals were housed individually and allowed food and water ad libitum.
as §2, with “allodynia. To assess response to a noxious thermal stimulus, rats were placed on an elevated glass floor beneath an inverted clear plastic cage, and a radiant heat source beneath the glass was aimed at the plantar surface of the hindpaw. The onset of light activated a timer which was terminated by a hindpaw withdrawal response.” for “allodynia.”
as §3

| Structure (SMILES) | effect of antagonist pretreatment on NMDA dose-response curve, noxious mechanical stimuli, compared to saline pretreatment [3] | effect of antagonist pretreatment on NMDA dose-response curve, innocuous tactile stimuli, compared to saline pretreatment [4] | effect of antagonist pretreatment on NMDA dose-response curve, noxious thermal stimuli, compared to saline pretreatment [5] | further results |
| --- | --- | --- | --- | --- |
| CCC/C(=C\C(N)C(=O)O)CP(=O)(O)O (racemic) [[^3 H]CGP-39653, D,L-(E)-2-amino-4-propyl-5-phosphono-3-pentenoate] |  |  |  | Kd [1]: 12.9 ± 1.8 nM; Kd [2]: 15.4 nM |
| Cc1ccc(N(CC2=NCCN2)c2cccc(O)c2)cc1 [phentolamine] | significantly shifted the dose-response curves downward | significantly shifted the dose-response curves downward | significantly shifted the dose-response curves downward |  |
| C=CCN1CC[C@]23c4c5ccc(O)c4O[C@H]2C(=O)CC[C@@]3(O)[C@H]1C5 [naloxone] | no effect | no effect | no effect |  |
| CN[C@H](CC(=O)O)C(=O)O [NMDA, N-methyl-D-aspartate] |  |  |  | time of peak effect, mechanical hyperalgesia ([3]; intrathecal NMDA): 30 min; time to significant thermal hyperalgesia in control animals ([5]; 5 nmol NMDA i.t., control transplanted animals, P<0.05): ≤ 5 min; time of peak effect, thermal hyperalgesia ([5]; intrathecally administered NMDA, all cases): 30 min |

Reference: patent US5935606A, “Reversing excitotoxic CNS damage by cellular implantation” (priority 1995, dated 1999)
